How the values were obtained:
Set-up in all cases: scale not given: the % may be the effect or the level left
[1] = target: T1, Dual specificity tyrosine-phosphorylation-regulated kinase 3 (Homo sapiens) (UniProt O43781); assay: Inhibition of human DYRK3 assessed as enzyme activity at 1 uM using RRRFRPASPLRGPPK as substrate preincubated for 20 mins followed by [gamma-33P]-ATP addition and measured after 120 mins by radiometric Hot-SpotSM Kinase assay relative to control
T1 sequence (whole entry): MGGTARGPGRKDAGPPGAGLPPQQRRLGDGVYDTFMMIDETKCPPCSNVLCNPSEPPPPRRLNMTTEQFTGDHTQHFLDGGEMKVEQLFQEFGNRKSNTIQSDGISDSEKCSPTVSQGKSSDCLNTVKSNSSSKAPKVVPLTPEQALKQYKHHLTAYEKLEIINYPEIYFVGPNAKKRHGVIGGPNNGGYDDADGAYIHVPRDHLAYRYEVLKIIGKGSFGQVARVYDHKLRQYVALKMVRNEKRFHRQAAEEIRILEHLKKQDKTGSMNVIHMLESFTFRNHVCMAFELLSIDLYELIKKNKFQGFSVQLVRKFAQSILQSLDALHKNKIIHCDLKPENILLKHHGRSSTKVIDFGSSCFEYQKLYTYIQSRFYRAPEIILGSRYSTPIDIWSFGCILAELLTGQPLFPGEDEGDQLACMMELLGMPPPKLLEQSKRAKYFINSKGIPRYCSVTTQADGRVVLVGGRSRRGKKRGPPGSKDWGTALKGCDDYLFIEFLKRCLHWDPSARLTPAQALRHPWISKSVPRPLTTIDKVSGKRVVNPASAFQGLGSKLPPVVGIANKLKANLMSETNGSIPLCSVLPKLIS

[2] = target: Tyrosine-protein kinase FRK (Homo sapiens) (UniProt P42685); assay: Inhibition of human FRK assessed as enzyme activity at 1 uM using poly[Glu:Tyr] (4:1) as substrate preincubated for 20 mins followed by [gamma-33P]-ATP addition and measured after 120 mins by radiometric Hot-SpotSM Kinase assay relative to control
[3] = target: LIM domain kinase 2 (Homo sapiens) (UniProt P53671); assay: Inhibition of human LIMK2 assessed as enzyme activity at 1 uM using cofilin 2 as substrate preincubated for 20 mins followed by [gamma-33P]-ATP addition and measured after 120 mins by radiometric Hot-SpotSM Kinase assay relative to control
[4] = target: SRSF protein kinase 3 (Homo sapiens) (UniProt Q9UPE1); assay: Inhibition of human MSSK1 assessed as enzyme activity at 1 uM using GRSRSRSRSR as substrate preincubated for 20 mins followed by [gamma-33P]-ATP addition and measured after 120 mins by radiometric Hot-SpotSM Kinase assay relative to control
[5] = target: Serine/threonine-protein kinase 26 (Homo sapiens) (UniProt Q9P289); assay: Inhibition of human MST4 assessed as enzyme activity at 1 uM using myelin basic protein as substrate preincubated for 20 mins followed by [gamma-33P]-ATP addition and measured after 120 mins by radiometric Hot-SpotSM Kinase assay relative to control
[6] = target: T2, Muscle, skeletal receptor tyrosine-protein kinase (Homo sapiens) (UniProt O15146); assay: Inhibition of human MUSK assessed as enzyme activity at 1 uM using myelin basic protein as substrate preincubated for 20 mins followed by [gamma-33P]-ATP addition and measured after 120 mins by radiometric Hot-SpotSM Kinase assay relative to control
T2 sequence (whole entry): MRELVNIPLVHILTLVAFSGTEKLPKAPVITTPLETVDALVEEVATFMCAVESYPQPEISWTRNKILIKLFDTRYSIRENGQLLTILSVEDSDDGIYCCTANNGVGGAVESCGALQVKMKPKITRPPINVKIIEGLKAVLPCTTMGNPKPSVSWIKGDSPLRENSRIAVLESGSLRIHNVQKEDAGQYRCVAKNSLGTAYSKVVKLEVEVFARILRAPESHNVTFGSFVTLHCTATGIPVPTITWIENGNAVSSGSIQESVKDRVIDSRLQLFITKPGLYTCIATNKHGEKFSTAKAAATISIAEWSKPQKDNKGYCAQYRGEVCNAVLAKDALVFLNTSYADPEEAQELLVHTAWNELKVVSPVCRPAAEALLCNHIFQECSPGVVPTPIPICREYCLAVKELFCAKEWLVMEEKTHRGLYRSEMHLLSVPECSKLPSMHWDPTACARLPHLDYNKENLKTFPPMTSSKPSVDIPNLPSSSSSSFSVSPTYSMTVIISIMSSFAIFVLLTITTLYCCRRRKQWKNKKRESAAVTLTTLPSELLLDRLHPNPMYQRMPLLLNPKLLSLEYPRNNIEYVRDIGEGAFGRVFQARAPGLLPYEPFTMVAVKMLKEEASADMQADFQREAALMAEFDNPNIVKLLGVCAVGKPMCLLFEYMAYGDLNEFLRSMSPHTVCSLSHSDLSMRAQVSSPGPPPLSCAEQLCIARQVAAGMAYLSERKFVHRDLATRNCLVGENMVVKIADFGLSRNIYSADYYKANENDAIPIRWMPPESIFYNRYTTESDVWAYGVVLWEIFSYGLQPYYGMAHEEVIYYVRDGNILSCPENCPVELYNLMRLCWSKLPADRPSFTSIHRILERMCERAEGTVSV

[7] = target: Platelet-derived growth factor receptor beta (Homo sapiens) (UniProt P09619); assay: Inhibition of human PDGFRb assessed as enzyme activity at 1 uM using poly[Glu:Tyr] (4:1) as substrate preincubated for 20 mins followed by [gamma-33P]-ATP addition and measured after 120 mins by radiometric Hot-SpotSM Kinase assay relative to control
Chain of Platelet-derived growth factor receptor beta (Homo sapiens) (P09619 whole entry): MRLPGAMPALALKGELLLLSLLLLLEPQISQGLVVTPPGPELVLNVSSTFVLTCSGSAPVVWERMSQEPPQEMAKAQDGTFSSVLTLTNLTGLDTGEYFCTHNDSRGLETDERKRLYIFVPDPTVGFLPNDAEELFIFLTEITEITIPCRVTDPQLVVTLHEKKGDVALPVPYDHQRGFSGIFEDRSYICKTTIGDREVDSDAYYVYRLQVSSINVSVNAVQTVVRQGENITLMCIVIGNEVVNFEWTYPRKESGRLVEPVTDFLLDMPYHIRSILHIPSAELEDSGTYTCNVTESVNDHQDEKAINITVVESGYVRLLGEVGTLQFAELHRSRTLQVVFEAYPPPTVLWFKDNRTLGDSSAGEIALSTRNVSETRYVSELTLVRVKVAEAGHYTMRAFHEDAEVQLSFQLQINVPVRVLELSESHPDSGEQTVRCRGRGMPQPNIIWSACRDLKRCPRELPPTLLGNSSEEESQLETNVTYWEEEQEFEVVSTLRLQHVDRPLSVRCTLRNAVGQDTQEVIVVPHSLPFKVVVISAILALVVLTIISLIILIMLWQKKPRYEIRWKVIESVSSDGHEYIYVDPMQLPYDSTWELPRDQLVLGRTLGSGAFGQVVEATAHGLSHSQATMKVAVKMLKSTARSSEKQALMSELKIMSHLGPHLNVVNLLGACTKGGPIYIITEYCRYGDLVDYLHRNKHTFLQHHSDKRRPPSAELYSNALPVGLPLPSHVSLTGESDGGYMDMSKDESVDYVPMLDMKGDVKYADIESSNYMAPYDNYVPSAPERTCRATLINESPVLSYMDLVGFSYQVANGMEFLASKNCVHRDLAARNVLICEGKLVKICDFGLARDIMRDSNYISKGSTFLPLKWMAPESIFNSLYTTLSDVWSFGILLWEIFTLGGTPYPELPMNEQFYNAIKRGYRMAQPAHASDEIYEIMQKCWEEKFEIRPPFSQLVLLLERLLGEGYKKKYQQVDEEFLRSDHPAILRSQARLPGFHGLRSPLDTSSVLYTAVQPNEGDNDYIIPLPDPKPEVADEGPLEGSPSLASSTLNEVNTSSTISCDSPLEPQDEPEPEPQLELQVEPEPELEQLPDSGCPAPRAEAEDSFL

Chain of Serine/threonine-protein kinase 26 (Homo sapiens) (Q9P289 2-416 limits assumed): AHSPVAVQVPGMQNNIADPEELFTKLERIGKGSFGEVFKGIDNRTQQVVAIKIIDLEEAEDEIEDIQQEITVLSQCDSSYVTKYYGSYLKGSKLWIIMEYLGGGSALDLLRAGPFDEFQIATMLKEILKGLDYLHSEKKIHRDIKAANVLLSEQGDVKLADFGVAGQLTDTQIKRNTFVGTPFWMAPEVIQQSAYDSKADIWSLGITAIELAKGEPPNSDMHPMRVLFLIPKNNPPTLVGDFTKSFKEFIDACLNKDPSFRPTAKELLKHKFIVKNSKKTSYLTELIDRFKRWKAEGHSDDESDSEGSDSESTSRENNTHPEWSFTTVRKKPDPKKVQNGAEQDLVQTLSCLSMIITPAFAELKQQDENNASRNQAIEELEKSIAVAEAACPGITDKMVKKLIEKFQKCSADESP
Chain of Tyrosine-protein kinase FRK (Homo sapiens) (P42685 whole entry, the tested form may be a part): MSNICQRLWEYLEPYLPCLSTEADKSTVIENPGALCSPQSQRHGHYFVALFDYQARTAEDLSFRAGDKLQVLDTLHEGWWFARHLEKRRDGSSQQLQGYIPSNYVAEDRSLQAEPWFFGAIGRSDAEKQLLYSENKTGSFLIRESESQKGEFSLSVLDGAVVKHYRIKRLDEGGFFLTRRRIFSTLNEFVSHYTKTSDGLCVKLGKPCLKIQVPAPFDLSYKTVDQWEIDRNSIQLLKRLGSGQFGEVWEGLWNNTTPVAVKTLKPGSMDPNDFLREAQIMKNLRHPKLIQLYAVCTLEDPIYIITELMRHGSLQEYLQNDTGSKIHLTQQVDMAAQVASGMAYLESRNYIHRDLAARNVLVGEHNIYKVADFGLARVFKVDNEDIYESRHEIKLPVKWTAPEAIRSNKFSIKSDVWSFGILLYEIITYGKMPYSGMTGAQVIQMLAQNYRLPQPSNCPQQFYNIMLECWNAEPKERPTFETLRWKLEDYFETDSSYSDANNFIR
Chain of LIM domain kinase 2 (Homo sapiens) (P53671 whole entry, looked up, the tested form may be a part): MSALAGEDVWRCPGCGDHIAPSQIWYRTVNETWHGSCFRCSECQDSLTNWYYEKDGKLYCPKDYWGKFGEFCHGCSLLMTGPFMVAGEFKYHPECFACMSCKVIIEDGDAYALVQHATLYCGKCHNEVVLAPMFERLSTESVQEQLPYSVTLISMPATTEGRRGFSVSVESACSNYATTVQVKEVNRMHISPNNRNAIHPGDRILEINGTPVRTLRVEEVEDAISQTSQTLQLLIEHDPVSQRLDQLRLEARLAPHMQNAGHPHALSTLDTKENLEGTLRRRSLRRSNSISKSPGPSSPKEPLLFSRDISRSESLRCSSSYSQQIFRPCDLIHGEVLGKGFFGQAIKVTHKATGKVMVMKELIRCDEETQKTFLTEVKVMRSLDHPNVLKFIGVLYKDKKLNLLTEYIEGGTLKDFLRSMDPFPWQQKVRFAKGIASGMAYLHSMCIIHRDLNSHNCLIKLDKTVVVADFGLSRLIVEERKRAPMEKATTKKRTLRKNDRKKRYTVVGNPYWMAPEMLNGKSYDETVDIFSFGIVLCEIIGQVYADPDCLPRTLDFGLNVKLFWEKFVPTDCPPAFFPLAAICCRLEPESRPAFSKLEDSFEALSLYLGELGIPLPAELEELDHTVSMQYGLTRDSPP
Chain of SRSF protein kinase 3 (Homo sapiens) (Q9UPE1 whole entry): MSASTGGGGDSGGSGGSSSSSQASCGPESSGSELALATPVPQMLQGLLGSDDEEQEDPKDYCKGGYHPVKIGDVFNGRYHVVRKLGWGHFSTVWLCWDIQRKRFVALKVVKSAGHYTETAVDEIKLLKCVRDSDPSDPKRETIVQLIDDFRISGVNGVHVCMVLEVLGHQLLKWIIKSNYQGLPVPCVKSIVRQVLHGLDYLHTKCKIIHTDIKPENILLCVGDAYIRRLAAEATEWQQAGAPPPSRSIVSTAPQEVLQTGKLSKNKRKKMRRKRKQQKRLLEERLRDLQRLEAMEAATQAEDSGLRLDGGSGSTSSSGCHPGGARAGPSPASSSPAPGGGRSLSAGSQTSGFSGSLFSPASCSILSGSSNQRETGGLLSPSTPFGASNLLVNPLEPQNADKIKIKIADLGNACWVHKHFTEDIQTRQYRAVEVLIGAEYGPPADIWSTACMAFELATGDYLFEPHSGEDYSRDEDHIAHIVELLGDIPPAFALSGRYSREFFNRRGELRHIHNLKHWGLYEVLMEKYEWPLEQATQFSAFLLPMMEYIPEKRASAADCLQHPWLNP

| SMILES | Activity [1] [%] | Activity [2] [%] | Activity [3] [%] | Activity [4] [%] | Activity [5] [%] | Activity [6] [%] | Activity [7] [%] |
| --- | --- | --- | --- | --- | --- | --- | --- |
| C[C@H](Nc1ncnc2nc[nH]c12)c1cc2cccc(Cl)c2c(=O)n1-c1ccccc1 | 97.8 | 96.9 | 104 | 102 | 83.5 | 95.8 | 97.8 |
| CC[C@H](Nc1ncnc2[nH]cnc12)c1nc2cccc(F)c2c(=O)n1-c1ccccc1 | 96.9 | 94 | 96 | 101 | 91.5 | 94.4 | 102 |
| CC(C)Oc1ccc(-c2nn([C@@H](C)c3oc4ccc(F)cc4c(=O)c3-c3cccc(F)c3)c3ncnc(N)c23)cc1F [UMBRALISIB] | 96.9 | 95.3 | 98.6 | 107 | 88.2 | 97.5 | 104 |
